According to US20110288057A1, “SALICYLIC ACID DERIVATIVES BEING FARNESYL PYROPHOSPHATE SYNTHASE ACTIVITY INHIBITORS” (Novartis AG, priority 2008, published 2011):

molecular target: T1, Recombinant human Farnesyl Pyrophosphate synthase (FPPS) (Homo sapiens, UniProt P14324); experiment: FPPS SPA (scintillation proximity FlashPlate assay of FPPS inhibition); assay type: biochemical; conditions: Example 13 table; FPPS SPA; read-out: IC50
T1 construct: made in house
T1 sequence (P14324 72-419 limits assumed): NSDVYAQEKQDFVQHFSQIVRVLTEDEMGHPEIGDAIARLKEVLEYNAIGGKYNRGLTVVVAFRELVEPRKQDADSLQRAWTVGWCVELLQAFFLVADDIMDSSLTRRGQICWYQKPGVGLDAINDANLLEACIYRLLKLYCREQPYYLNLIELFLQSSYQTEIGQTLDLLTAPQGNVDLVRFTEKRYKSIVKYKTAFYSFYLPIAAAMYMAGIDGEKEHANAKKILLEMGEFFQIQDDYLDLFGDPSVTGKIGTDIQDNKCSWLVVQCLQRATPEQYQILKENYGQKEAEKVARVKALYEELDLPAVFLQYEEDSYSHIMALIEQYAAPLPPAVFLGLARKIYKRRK

First: COc1ccc(-c2ccc(C(=O)O)c(OCc3cccc4ccccc34)c2)cc1OC [13 ab)]
Second: COc1cccc(-c2ccc(C(=O)O)c(OCc3cccc4ccccc34)c2)c1 [13 af)]
The IC50 of the first is 6-fold lower: 260 nM for the first, 1550 nM for the second.

First: O=C(O)c1ccc(-c2ccc(Cl)c(Cl)c2)cc1OCc1cccc2ccccc12 [13 ac)]
Second: O=C(O)c1ccc(-c2ccc(F)c(F)c2)cc1OCc1cccc2ccccc12 [13 ai)]
The IC50 of the first is 4.6-fold higher: 1460 nM for the first, 320 nM for the second. The second is the more potent here.

`O=C(O)c1ccc(-c2cccc(CO)c2)cc1OCc1cccc2ccccc12` [13 ad)] and `O=C(O)c1ccc(-c2cccc(O)c2)cc1OCc1cccc2ccccc12` [13 au)] are within 1.5-fold of each other in IC50: 500 nM for the first, 380 nM for the second.

Compared with `O=C(O)c1ccc(-c2cccc(OC(F)(F)F)c2)cc1OCc1cccc2ccccc12` [13 ae)], `O=C(O)c1ccc(-c2cccc(F)c2)cc1OCc1cccc2ccccc12` [13 aq)] is lower in IC50: over 10000 nM for the first, 1140 nM for the second. The second is the more potent here.

Going from `Cc1cccc(C)c1-c1ccc(C(=O)O)c(OCc2cccc3ccccc23)c1` [13 ag)] to `Cc1ccccc1-c1ccc(C(=O)O)c(OCc2cccc3ccccc23)c1` [13 ar)], the IC50 falls from 1100 nM to 530 nM (2.1-fold).

`O=C(O)c1ccc(-c2cccc3[nH]ccc23)cc1OCc1cccc2ccccc12` [13 ah)] and `O=C(O)c1ccc(-c2ccc3[nH]ccc3c2)cc1OCc1cccc2ccccc12` [13 am)] are within 1.5-fold of each other in IC50: 260 nM for the first, 340 nM for the second.

`O=C(O)c1ccc(-c2ccoc2)cc1OCc1cccc2ccccc12` [13 aj)] and `Cc1cccc(-c2ccc(C(=O)O)c(OCc3cccc4ccccc34)c2)c1` [13 ax)] are within 1.5-fold of each other in IC50: 550 nM for the first, 400 nM for the second.

First: O=C(O)c1ccc(-c2ccccc2F)cc1OCc1cccc2ccccc12 [13 ak)]
Second: COc1ccccc1-c1ccc(C(=O)O)c(OCc2cccc3ccccc23)c1 [13 ap)]
The IC50 of the first is 8.4-fold lower: 230 nM for the first, 1930 nM for the second. The first is the more potent here.

`O=C(O)c1ccc(-c2cc3ccccc3o2)cc1OCc1cccc2ccccc12` [13 al)] and `O=C(O)c1ccc(-c2csc3ccccc23)cc1OCc1cccc2ccccc12` [13 an)] are within 1.5-fold of each other in IC50: 1120 nM for the first, 1350 nM for the second.

First: O=C(O)c1ccc(-c2ccc3c(c2)OCCO3)cc1OCc1cccc2ccccc12 [13 ao)]
Second: O=C(O)c1ccc(-c2ccc3c(c2)OCO3)cc1OCc1cccc2ccccc12 [13 ba)]
The IC50 of the first is 1.8-fold higher: 420 nM for the first, 240 nM for the second. The second is the more potent here.

Compared with `O=C(O)c1ccc(-c2ccc(CO)cc2)cc1OCc1cccc2ccccc12` [13 as)], `CC(=O)Nc1ccc(-c2ccc(C(=O)O)c(OCc3cccc4ccccc34)c2)cc1` [13 da)] is 2.9-fold lower in IC50: 380 nM for the first, 130 nM for the second. The second is the more potent here.

Going from `Cc1cc(Cl)ccc1-c1ccc(C(=O)O)c(OCc2cccc3ccccc23)c1` [13 aw)] to `Cn1ccc2cc(-c3ccc(C(=O)O)c(OCc4cccc5ccccc45)c3)ccc21` [13 ca)], the IC50 falls from 440 nM to 270 nM (1.6-fold). The second is the more potent here.

With `COc1ccc2cc(-c3ccc(C(=O)O)c(OCc4cccc5ccccc45)c3)ccc2c1` [13 ay)] the IC50 was 380 nM.

same assay, conditions: Example 15 table; FPPS SPA; read-out: IC50

First: O=C(O)c1ccc(NC2CCCC2)cc1OCc1cccc2ccccc12 [15 aa)]
Second: O=C(O)c1ccc(NC2CCCCCC2)cc1OCc1cccc2ccccc12 [15 aj)]
The IC50 of the first is 2.8-fold lower: 630 nM for the first, 1790 nM for the second.

Compared with `O=C(O)c1ccc(NCCCO)cc1OCc1cccc2ccccc12` [15 ab)], `CCCNc1ccc(C(=O)O)c(OCc2cccc3ccccc23)c1` [15 al)] is 6.2-fold lower in IC50: 2310 nM for the first, 370 nM for the second. The second is the more potent here.

First: O=C(O)c1ccc(N2CCCCCC2)cc1OCc1cccc2ccccc12 [15 ac)]
Second: CN1CCCN(c2ccc(C(=O)O)c(OCc3cccc4ccccc34)c2)CC1 [15 at)]
The IC50 of the first is 12-fold lower: 530 nM for the first, 6450 nM for the second.

First: CC(C)(C)CNc1ccc(C(=O)O)c(OCc2cccc3ccccc23)c1 [15 ad)]
Second: CCNc1ccc(C(=O)O)c(OCc2cccc3ccccc23)c1 [15 ao)]
The IC50 of the first is 1.6-fold lower: 470 nM for the first, 730 nM for the second.

Compared with `COCCN(C)c1ccc(C(=O)O)c(OCc2cccc3ccccc23)c1` [15 ae)], `CN(CCO)c1ccc(C(=O)O)c(OCc2cccc3ccccc23)c1` [15 af)] is 1.9-fold lower in IC50: 1390 nM for the first, 720 nM for the second.

`O=C(O)c1ccc(NCC2CCCCC2)cc1OCc1cccc2ccccc12` [15 ag)] and `C[C@H](Nc1ccc(C(=O)O)c(OCc2cccc3ccccc23)c1)C1CCCCC1` [15 ai)] are within 1.5-fold of each other in IC50: 2430 nM for the first, 3520 nM for the second.

Going from `CCCN(CC1CC1)c1ccc(C(=O)O)c(OCc2cccc3ccccc23)c1` [15 ah)] to `CCN(CC)CCN(C)c1ccc(C(=O)O)c(OCc2cccc3ccccc23)c1` [15 az)], the IC50 rises from 1310 nM to 26600 nM (20-fold). The first is the more potent here.

First: CC1CCC(Nc2ccc(C(=O)O)c(OCc3cccc4ccccc34)c2)CC1 (centres unmarked) [15 ak)]
Second: O=C(O)c1ccc(N[C@H]2CC[C@H](O)CC2)cc1OCc1cccc2ccccc12 [15 am)]
The IC50 of the first is 6.5-fold higher: 1240 nM for the first, 190 nM for the second.

Going from `CN1CCCC1CCNc1ccc(C(=O)O)c(OCc2cccc3ccccc23)c1` (centres unmarked) [15 ap)] to `COCCNc1ccc(C(=O)O)c(OCc2cccc3ccccc23)c1` [15 ar)], the IC50 falls from 17500 nM to 8100 nM (2.2-fold).

Going from `CC(Nc1ccc(C(=O)O)c(OCc2cccc3ccccc23)c1)C(C)(C)C` (centres unmarked) [15 aq)] to `CN1CCC(Nc2ccc(C(=O)O)c(OCc3cccc4ccccc34)c2)CC1` [15 aw)], the IC50 rises from 650 nM to 4750 nM (7.3-fold).

Compared with `CC(=O)N1CCN(c2ccc(C(=O)O)c(OCc3cccc4ccccc34)c2)CC1` [15 as)], `CN1CCN(c2ccc(C(=O)O)c(OCc3cccc4ccccc34)c2)CC1` [15 ba)] is 5.9-fold higher in IC50: 6500 nM for the first, 38600 nM for the second.

With `O=C(O)c1ccc(N2CCOCC2)cc1OCc1cccc2ccccc12` [15 au)] the IC50 was 3180 nM.

same assay, conditions: Example 16 table; FPPS SPA; read-out: IC50

First: O=C(O)c1ccc(NCc2ccccc2)cc1OCc1cccc2ccccc12 [16 b)]
Second: O=C(O)c1ccc(NCC2CC2)cc1OCc1cccc2ccccc12 [16 c)]
The IC50 of the first is 5.7-fold lower: 210 nM for the first, 1200 nM for the second.

same assay, conditions: IC50, Example 13 table; FPPS SPA

Compared with `O=C(O)c1ccc(-c2ccc(F)cc2)cc1OCc1cccc2ccccc12` [13 at)], `O=C(O)c1ccc(-c2ccc(Cl)cc2)cc1OCc1cccc2ccccc12` [13 av)] is 2.3-fold higher in IC50: 300 nM for the first, 690 nM for the second. The first is the more potent here.

Work on `O=C(O)c1ccc(-c2ccc(O)cc2)cc1OCc1cccc2ccccc12` [13 az)] yielded an IC50 of 380 nM.

same assay, conditions: IC50, Example 15 table; FPPS SPA

`CN(C)c1ccc(C(=O)O)c(OCc2cccc3ccccc23)c1` [15 an)] was tested, and the IC50 was 190 nM.

same assay, conditions: IC50 on FPPS, test system termed "FPS SPA" (Example 18)

`O=C(O)c1ccccc1OCc1cccc2ccccc12` [Example 17 r)] showed an IC50 of 12500 nM.

same assay, conditions: Inhibition according to the FPPS SPA (Example 21); read-out: IC50

`CCN(CC)c1ccc(C(=O)O)c(OCc2c(Cl)ccc3ccccc23)c1` [17 a)] and `CCN(CC)c1ccc(C(=O)O)c(OCc2c(C)ccc3ccccc23)c1` [17 d)] are within 1.5-fold of each other in IC50: 770 nM for the first, 660 nM for the second.

Compared with `Cc1ccc2ccccc2c1COc1ccccc1C(=O)O` [17 b)], `Cc1ccc(COc2ccccc2C(=O)O)c2ccccc12` [17 e)] is 5.4-fold higher in IC50: 340 nM for the first, 1830 nM for the second. The first is the more potent here.

First: Cc1ccc2ccccc2c1COc1cc(-n2c(C)ccc2C)ccc1C(=O)O [17 c)]
Second: Cc1ccc(C)n1-c1ccc(C(=O)O)c(OCc2cccc3ccccc23)c1 [17 g)]
The IC50 of the first is 2-fold higher: 480 nM for the first, 240 nM for the second.

Compared with `CCN(CC)c1ccc(C(=O)O)c(OCc2cccc3ccc(Cl)cc23)c1` [17 f)], `CCN(CC)c1ccc(C(=O)O)c(OCc2cccc3ccccc23)c1` [17 i)] is 4.5-fold lower in IC50: 1820 nM for the first, 400 nM for the second.

Compared with `O=C(O)c1cc2ccccc2cc1OCc1cccc2ccccc12` [17 h)], `O=C(O)c1ccccc1OCc1cccc2ccccc12` [17 r)] is 15-fold higher in IC50: 840 nM for the first, 12800 nM for the second.

Going from `O=C(O)c1cc(Cl)ccc1OCc1cccc2ccccc12` [17 j)] to `COc1ccc(OCc2cccc3ccccc23)c(C(=O)O)c1` [17 o)], the IC50 falls from 2960 nM to 880 nM (3.4-fold). The second is the more potent here.

Compared with `O=C(O)c1ccc(C(F)(F)F)cc1OCc1cccc2ccccc12` [17 k)], `O=C(O)c1ccc(OC(F)(F)F)cc1OCc1cccc2ccccc12` [17 l)] is 3.6-fold higher in IC50: 810 nM for the first, 2910 nM for the second. The first is the more potent here.

`CC(C)CCOc1ccc(C(=O)O)c(OCc2cccc3ccccc23)c1` [17 m)] and `COc1ccc(C(=O)O)c(OCc2cccc3ccccc23)c1` [17 s)] are within 1.5-fold of each other in IC50: 1900 nM for the first, 1340 nM for the second.

Compared with `O=C(O)c1ccc(OCc2ccccc2)cc1OCc1cccc2ccccc12` [17 n)], `O=C(O)c1ccc(Br)cc1OCc1cccc2ccccc12` [17 q)] is 9.2-fold higher in IC50: 730 nM for the first, 6750 nM for the second.

In the case of `Cc1cc(O)c(C(=O)O)c(OCc2cccc3ccccc23)c1` [17 p)], the IC50 is reported as 2500 nM.
